# Experimental data: US8329703B2, “Pyrazole compounds” (XTL Biopharmaceuticals Ltd., priority 2005, dated 2012)
# “And” between values parts separate entries of the source, which are not always exact repeats. Equal entries are not always repeated. Where two headings read alike, the source gives them in different places.
# How the values were obtained:
# [1] = tested on: HCV Replicon (HCV IRES driven luciferase reporter) in Huh-Luc-Neo cells; assay: HCV Replicon Luciferase Assay; format: cell-based; settings: 48 h
# Procedure: (§1) The identification of inhibitors of HCV replication and/or proliferation has been facilitated by the development of a cell based system to study HCV replication and assay for HCV inhibitors. Inhibition of HCV replication may be performed using the HCV Replicon Assay developed in the laboratories of Bartenschlager (Lohman et al, Science 285, 110-113, 1999) and Rice (Blight et al, Science 290, 1972-1974, 2000). The assay is performed using the Huh-Luc-Neo cell line (Lohman et al, Science 285, 110-113, 1999). Huh-Luc-Neo cells are a human hepatoma cell line (Huh-7) stably expressing a bi-cistronic subgenomic replicon containing the HCV IRES in which the […] of HCV had been deleted and replaced by a construct containing sequences coding for the firefly luciferase reporter gene, the neomycin selectable marker and the EMCV IRES to direct expression of a truncated HCV genome expressing the […] NS3, NS4A, NS4B, NS5A, and NS5B. HCV targets through which inhibitors could act to inhibit replication include the NS3 protease, the helicase/ATPase, NS5A, the NS5B-RNA dependent RNA polymerase, and the HCV IRES.
# (§2) Expression of HCV IRES driven luciferase reporter activity and HCV RNA is measured to obtain indirect and direct measures of replication of HCV RNA respectively. Inhibitors of HCV replication and/or proliferation are determined by initially identifying molecules that inhibit expression of the HCV IRES driven luciferase reporter in this HCV Replicon Luciferase Assay. Cell viability assays and control cell based luciferase assays are then run on hits identified in the HCV Replicon Luciferase Assay to eliminate cytoxic compounds and non-specific compounds which act by inhibiting the luciferase enzyme.
# (§3) Day 0, Cell Seeding and Compound Treatment: Huh-Luc-Neo Cells are seeded at 25,000/well in an opaque-walled 96 plate with Growth Medium (DMEM phenol red free+PS+2 mM glutamine; 100 μl/well). The compounds to be tested are added to the experimental wells (10 μl/well at 10× assay concentration) and the cells are then incubated (5% CO2, 37° C.) for 48 h.
# (§4) Day 2, Reagent Preparation and Luciferase Assay: The Bright-Glo Luciferase Assay Buffer (Promega) is thawed and equilibrated to room temperature prior to use. The lyophilized Bright-Glo Luciferase Assay Substrate is equilibrated to room temperature prior to use. 10 ml of Bright-Glo Luciferase Assay Buffer is transferred to 1 vial of Bright-Glo Luciferase Assay Substrate bottle and mixed by gently with a Vortex. 100 ul of Bright-Glo Luciferase Assay reagent (Bright-Glo Luciferase Assay Buffer+Bright-Glo Luciferase Assay Substrate Mixture) is added to each well. The well contents are mixed for 5 min. on an orbital shaker at room temperature to induce cell lysis and the luminescence is then measured using a luminometer. The data is analyzed and IC50s are determined using GraphPad Prism 4 software. Hits validated in the Replicon Luciferase assay have IC50s<8.0 μM and show <30% inhibition of Cell Viability at a compound concentration of 100 μM (Cell Titer Glow Assay, cell viability assay conditions identical to HCV Replicon Luciferase Assay conditions).
# [2] = tested on: HCV RNA (HCV Replicon) in Huh-Luc-Neo cells; assay: HCV Replicon RNA Assay (Taqman quantitative PCR); format: cell-based; settings: 2 compound treatments over 48 h, no unit printed in table (b307 gives IC50s in μM)
# Procedure: as §1, §2
# as §3, with “C.).” for “C.) for 48 h.”
# Day 1, Media Change and Compound Treatment: 24 hours after the initial compound treatment the cell culture media is aspirated from the wells and fresh Growth Medium is added (DMEM phenol red free+PS+2 mM glutamine; 100 μl/well). The compounds to be tested are then added to the appropriate experimental wells (10 μl/well at 10× assay concentration) and the cells are then incubated (5% CO2, 37° C.) for an additional 24 hrs.
# Day 2, RNA Isolation and cDNA Synthesis: The cells are washed with 1× Phosphate Buffered Saline (PBS) once.
# (§5) Day 3, Quantitative PCR Based Measurement of HCV RNA (Taqman Assay): Quantitative PCR analysis to measure HCV RNA expression from cDNA synthesized on Day 2 is performed using the ABI 9700 HT Sequence Detection System (Applied Biosystems) as previously described (Lohman et al, Science 285, 110-113, 1999). The data is analyzed and IC50s are determined using GraphPad Prism 4 software. Hits validated in the Replicon RNA Assay have IC50s<8.0 μM and show <30% inhibition of Cell Viability at a compound concentration of 50 μM (Cell Titer Glow Assay, cell viability assay conditions identical to HCV Replicon RNA Assay conditions).
# [3] = tested on: Huh-Luc-Neo cells; assay: Cell Titer-Glo Cell Viability Assay; format: cell-based, human; settings: for Toxicity % Inhibition at 50 μM (2 doses): inhibition of cell viability at 50 μM, conditions identical to HCV Replicon RNA Assay; for Toxicity % Inhibition at 100 μM (1 dose): inhibition of cell viability at 100 μM, conditions identical to HCV Replicon Luciferase Assay (48 h)
# Procedure: as §4, §5
# Day 0, Cell Seeding and Compound Treatment: Huh-Luc-Neo Cells are seeded at 25,000/well in an opaque-walled 96 plate with Growth Medium (DMEM phenol red free+PS+2 mM glutamine; 100 ul/well).
# Day 2, Reagent Preparation and Assay: The CellTiter-Glo Buffer is thawed and equilibrated to room temperature prior to use. The lyophilized CellTiter-Glo Substrate is equilibrated to room temperature prior to use. 10 ml of CellTiter-Glo Buffer is transferred to 1 vial of CellTiter-Glo Substrate and mixed by gently with a Vortex. 100 μl of CellTiter-Glo Assay reagent (CellTiter-Glo Buffer+CellTiter-Glo Substrate Mixture) is added to each well. The well contents are mixed for 5 min. on an orbital shaker at room temperature to induce cell lysis and the luminescence is then measured using a luminometer.
# [4] = Hepatitis C virus, Huh-Luc-Neo cells, no unit printed in table (b301 gives IC50s in μM), read-out: Luciferase IC50
# [5] = Huh-Luc-Neo cells, no unit printed in table (b301 gives IC50s in μM), read-out: Luciferase IC50
Structure (SMILES),"IC50 [1, 4] [µM]","IC50 ([2]; Hepatitis C virus, 48 h) [µM]",Toxicity % Inhibition at 50 μM (2 doses) [3] [%],Toxicity % Inhibition at 100 μM (1 dose) [3],"IC50 ([1]; Hepatitis C virus, read-out: Luciferase IC50) [µM]","IC50 ([1]; Hepatitis C virus, read-out: Luciferase IC50, Huh-Luc-Neo cells, 48 h, no unit printed in table (b301 gives IC50s in μM)) [µM]","IC50 [1, 5] [µM]",IC50 [2] [µM]
Cn1cc(C#CC(C)(C)C)c(-c2cc(NC(=O)c3cccc(Cl)c3)ccc2O)n1 [VQ_35559],9.5,1.98,15.8,24.2%,,,,
Cn1cc(C#CC(C)(C)C)c(-c2cc([N+](=O)[O-])ccc2NCc2ccc(I)cc2)n1 [VQ_36893],0.09,,,16.6%,,,,
Cn1nc(-c2ccccc2O)c(C#CCCCC#N)c1-c1ccccc1 [VQ_30716],3.96,0.11,6.8,13.7%,,,,
CC(Nc1ccc([N+](=O)[O-])cc1-c1nn(C)cc1C#CC(C)(C)C)c1ccccc1 (stereo not drawn) [VQ_36666],0.35,0.38,19.0,12.9%,,,,
Cn1cc(CCC(C)(C)C)c(-c2cc(NC(=O)c3cccc(Cl)c3F)ccc2O)n1 [VQ_34072],2.87,1.09,6.2,4.2%,,,,
Cn1cc(C#CC(C)(C)C)c(-c2cc([N+](=O)[O-])ccc2NCc2c(F)c(F)c(F)c(F)c2F)n1 [VQ_36894],0.12,,,12.5%,,,,
CCCCCC#Cc1cn(C)nc1-c1cc(Cl)ccc1O [VQ_23324],5.51,0.03,8.8,39.8%,,,,
Cn1cc(C#CC(C)(C)C)c(-c2cc([N+](=O)[O-])ccc2NCc2cc(F)cc(F)c2)n1 [VQ_36659],,0.3,21.9,13.0%,0.04,,,
CC(=O)c1ccc(N2CCN(C(=O)c3c(C#CC(C)(C)C)c(-c4cc(Cl)ccc4O)nn3C)CC2)cc1 [VQ_36649],9.7,0.4,12.1,7.3%,,,,
Cn1cc(C#Cc2ccc(N)cc2)c(-c2cc(Cl)ccc2O)n1 [VQ_23720],1.28,0.3,32.6,49.2%,,,,
Cn1cc(C#CCC2CCCCC2)c(-c2ccccc2O)n1 [VQ_23705],6.47,1.1,14.7,26.4%,,,,
Cn1cc(C#CC(C)(C)C)c(-c2cc(C#CCC3CCCCC3)ccc2O)n1 [VQ_34395],3.7,0.68,23.6,45.4%,,,,
Cn1cc(C#CC(C)(C)C)c(-c2cc([N+](=O)[O-])ccc2NCc2c(F)cccc2F)n1 [VQ_36665],0.03,0.72,25.6,12.8%,,,,
Cn1cc(C#CC(C)(C)C)c(-c2cc(Cl)ccc2O)n1 [VQ_23322],2,2.47,1.5,21.5%,,,,
COc1ccc(C#Cc2cn(C)nc2-c2cc(Cl)ccc2O)cc1 [VQ_23317],4.37,2.7,2.1,10.7%,,,,
Cn1cc(C#CC(C)(C)C)c(-c2cc([N+](=O)[O-])ccc2NCC(C)(C)CNc2ccc([N+](=O)[O-])cc2-c2nn(C)cc2C#CC(C)(C)C)n1 [VQ_36660],,0.59,15.8,15.3%,,10.4,,
CCCCCCNc1ccc([N+](=O)[O-])cc1-c1nn(C)cc1C#CC(C)(C)C [VQ_36663],,0.75,23.8,15.5%,,,,
Cn1cc(C#CC(C)(C)C)c(-c2cc([N+](=O)[O-])ccc2NCc2c(Cl)cccc2Cl)n1 [VQ_36886],0.19,,,12.6%,,,,
Cn1cc(C#CC(C)(C)C)c(-c2cc([N+](=O)[O-])ccc2NCc2cccc3ccccc23)n1 [VQ_36895],0.1,,,10.4%,,,,
Cn1cc(C#CC(C)(C)C)c(-c2cc([N+](=O)[O-])ccc2NC(=O)c2cc(C(F)(F)F)ccc2F)n1 [VQ_36905],1.63,,,10.9%,,,,
Cn1cc(C#CC(C)(C)C)c(-c2cc([N+](=O)[O-])ccc2NC(=O)COc2ccccc2)n1 [VQ_36908],,,,22.7%,,,1.72,
COCC#Cc1cn(C)nc1-c1cc(Cl)c(C)cc1O [VQ_23382],,3.03,,18.5% and 16.2%,,,,2.26
Cn1cc(C#CC(C)(C)C)c(-c2cc([N+](=O)[O-])ccc2NC(=O)c2ccccc2C(F)(F)F)n1 [VQ_36906],2.69,,,14.0%,,,,
Cn1cc(C#CC(C)(C)C)c(-c2cc([N+](=O)[O-])ccc2NCc2ccccc2C#N)n1 [VQ_36885],0.03,,,35.7%,,,,
Cn1cc(C#CC(C)(C)C)c(-c2cc([N+](=O)[O-])ccc2NCc2c(F)c(F)cc(F)c2F)n1 [VQ_36887],0.06,,,18.7%,,,,
COc1ccc(S(=O)(=O)Nc2ccc([N+](=O)[O-])cc2-c2nn(C)cc2C#CC(C)(C)C)cc1 [VQ_36877],0.2,,,10.9%,,,,
Cn1cc(C#CC(C)(C)C)c(-c2cc([N+](=O)[O-])ccc2NC(=O)COc2ccccc2)n1 [VQ_36907],,,,34.7%,,,0.2,
